Patent US8791079B2, “Methods for treating heart failure by inhibiting the mitochondrial sodium-calcium exchanger (mNCE)” (priority 2009, dated 2014)

Experiments:
aortic-banded animals [1] = assay: Acute sudden cardiac death model (ascending aortic banding plus isoproterenol 5 mg/kg); format: in vivo, guinea pig; conditions: single dose 5 mg/kg isoproterenol i.p. two days after aortic banding; CGP-37157 by osmotic pump; 77% without CGP-37157
Excerpt: (§1) As provided herein, the presently disclosed subject matter investigated whether these mechanisms underlie sudden cardiac death (SCD) and contractile decompensation in hypertrophic heart failure in two novel guinea-pig models of combined ascending aortic constriction together with β-adrenergic stimulation and whether therapy via mNCE inhibition was effective. Accordingly, in some embodiments, the presently disclosed subject matter provides a therapeutic strategy for treating heart failure.
(§2) Two models were developed: acute SCD and delayed SCD. The acute SCD model used a high dose of isoproterenol (5 mg/kg) administered by a single intraperitoneal injection two days after ascending aortic banding; and the delayed SCD model used low dose isoproterenol (week one: 1 mg/kg; subsequent weeks: 2 mg/kg), administered by daily intraperitoneal injection over the course of five weeks after aortic banding. Additionally, a therapeutic regime comprised of chronic treatment with an inhibitor of mNCE, e.g., CGP-37157, mean dose approximately 40 μg/kg, administered by implantation of an osmotic pump in the abdominal cavity (delivery rate: 0.015 mg/kg/hr) for extended delivery of the compound was initiated.

aortic-banded animals [2] = assay: Delayed sudden cardiac death model (aortic banding plus daily low dose isoproterenol), survival and echocardiography; format: in vivo, guinea pig
Excerpt: as §1, §2
The delayed SCD protocol was used to investigate the effect of chronic CGP-37157 treatment on mortality and the development of heart failure. Survival was extended using this protocol as compared with the acute SCD model. In the absence of CGP-37157, however, the death rate of the animals approached 60% by 30 days post-banding (see FIG. 10). In contrast, more than 78% of the animals survived in the group with CGP-37157 treatment (see FIG. 10).
Further, echocardiographic studies were carried out before surgery and at four weeks after aortic banding (see FIG. 11). […] In the group with CGP-37157 treatment, however, cardiac function was maintained.

[3] = target: T1, mitochondrial Na+/Ca2+ exchanger (mNCE) (Cavia porcellus, UniProt H0V3X3); conditions: cited from earlier work
T1 construct: in normal cardiac myocytes, with [Na^+]i elevated artificially using the patch clamp technique, and in myocytes isolated from failing hearts; host or cells: isolated cardiac myocytes (endogenous protein)
T1 sequence (H0V3X3 27-580): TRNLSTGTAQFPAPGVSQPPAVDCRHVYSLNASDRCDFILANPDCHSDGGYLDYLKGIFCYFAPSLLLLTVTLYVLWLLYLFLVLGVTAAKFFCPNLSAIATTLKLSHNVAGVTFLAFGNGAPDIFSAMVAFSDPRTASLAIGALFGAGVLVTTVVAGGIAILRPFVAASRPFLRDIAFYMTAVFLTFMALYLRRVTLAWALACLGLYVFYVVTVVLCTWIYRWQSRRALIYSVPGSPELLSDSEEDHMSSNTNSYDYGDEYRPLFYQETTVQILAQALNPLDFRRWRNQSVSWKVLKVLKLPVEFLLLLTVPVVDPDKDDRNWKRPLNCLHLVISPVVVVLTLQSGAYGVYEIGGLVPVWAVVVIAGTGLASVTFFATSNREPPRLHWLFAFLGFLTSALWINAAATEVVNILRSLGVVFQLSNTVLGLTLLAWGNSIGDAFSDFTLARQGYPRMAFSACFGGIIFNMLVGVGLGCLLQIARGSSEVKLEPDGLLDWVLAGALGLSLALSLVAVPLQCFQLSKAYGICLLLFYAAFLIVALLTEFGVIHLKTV

[4] = system: Guinea pig ventricular myocytes; assay: [Na+]i recording with SBFI in isolated cardiac myocytes; format: cell-based; conditions: ouabain at different concentrations, at rest or with 1-Hz stimulation
Protocol: Guinea pig ventricular myocytes were isolated by enzymatic digestion as described previously. O'Rourke, B., et al., “Oscillations of membrane current and excitability driven by metabolic oscillations in heart cells,” Science, 265(5174):962-966 (Aug. 12, 1994). Cells were suspended in Dulbecco's Modification of Eagle's Medium (DMEM) supplemented with 5% fetal bovine serum, 1% penicillin/streptomycin, and 15 mmol/L HEPES, pH 7.4, and stored in a 5% CO2 incubator at 37° C.
Cytosolic Ca^2+ ([Ca^2+]c), mitochondrial Ca^2+ ([Ca^2+]m), and [Na^+]i were measured with the fluorescent indicators indo-1, rhod-2, and sodium-binding benzofuran isophthalate (SBFI), respectively (Invitrogen, Carlsbad, Calif.), and mitochondrial NADH was measured as the cellular autofluorescence with 360-nm excitation/450-nm emission. Indo-1 was loaded into cell with the membrane permeable form, indo-1 AM. To minimize indo-1 loading into the mitochondrial compartment, cells were briefly incubated with indo-1 AM at room temperature for 20 min. Rhod-2 and SBFI experiments were carried out as previously described. Maack et al., supra, Liu and O'Rourke, supra. […]
Isolated ventricular myocytes were loaded into a heated field-stimulation chamber (Warner Instruments, Hamden, Conn.) at 37° C. on the stage of a fluorescence microscope (Nikon Eclipse TE300, Nikon Instruments, Inc., Melville, N.Y.). […]

Row | Structure (SMILES) | death rate (aortic-banded animals [1]) [%] | animals survived (aortic-banded animals [2]; 30 days post-banding, daily isoproterenol, CGP-37157 by osmotic pump, death rate approached 60% without CGP-37157) | Fractional Shortening (FS) at baseline (aortic-banded animals [2]; CGP-37157-treated group, before surgery, n=6) | Fractional Shortening (FS) at four weeks after aortic banding (aortic-banded animals [2]; CGP-37157-treated group, n=6, without CGP-37157 FS decreased from 54.9 to 42.5) | left ventricular wall thickness (aortic-banded animals [2]; echocardiography four weeks after aortic banding versus before surgery) | mitochondrial NADH production ([3]; cells with elevated [Na+]i) | mitochondrial Ca2+ retention capacity ([3]; inhibition of [Ca2+]m efflux) | [Na+]i [4]
1 | O=C1CSC(c2ccccc2Cl)c2cc(Cl)ccc2N1 (centres unmarked) [CGP-37157, 7-chloro-5-(2-chlorophenyl)-1,5-dihydro-4,1-benzothiazepin-2(3H)-one] | 20 | more than 78% | 54.0%±1.0 | 59.2%±1.8 | increased similarly in both groups | restores mitochondrial NADH production | increases mitochondrial Ca^2+ retention capacity | 
2 | C[C@@H]1O[C@@H](O[C@H]2C[C@@H](O)[C@]3(CO)[C@H]4[C@H](O)C[C@]5(C)[C@@H](C6=CC(=O)OC6)CC[C@]5(O)[C@@H]4CC[C@]3(O)C2)[C@H](O)[C@H](O)[C@H]1O [ouabain, 1β,3β,5β,11α,14,19-Hexahydroxycard-20(22)-enolide 3-(6-deoxy-α-L-mannopyranoside, reference compound] |  |  |  |  |  |  |  | elevated [Na^+]i monotonically in a dose-dependent way
